# Read-outs that look alike come from different tables or passages of the source.
# Tests used:
# [1] = system: S. aureus 8325-4; assay: MIC, microdilution in CAMHB 24 h; format: cell-based, Staphylococcus aureus; details: Staphylococcus aureus, 83254
# [2] = system: S. aureus SHY97-3906; assay: MIC, microdilution in CAMHB 24 h; format: cell-based, Staphylococcus aureus; details: Staphylococcus aureus, SHY973906
# [3] = system: S. aureus CF2A-L; assay: MIC, microdilution in CAMHB 24 h; format: cell-based; details: Staphylococcus aureus, CF2AL
# [4] = system: S. aureus ATCC 43300; assay: MIC, microdilution in CAMHB 24 h; format: cell-based, Staphylococcus aureus; details: Staphylococcus aureus, ATCC 43300 / MRSA
# [5] = system: S. aureus Sa220c; assay: MIC, microdilution in CAMHB 24 h; format: cell-based, Staphylococcus aureus; details: Staphylococcus aureus, MRSA
# [6] = system: S. aureus ATCC 29213; assay: MIC, microdilution in CAMHB 24 h, with or without tomatidine/compound; format: cell-based, Staphylococcus aureus; details: for Fold (−TO/+TO): tomatidine at 8 μg/ml; for MIC: Staphylococcus aureus
# [7] = system: S. aureus ATCC 29213; assay: MICs of control antibiotics for macromolecular biosynthesis assays; format: cell-based; details: Staphylococcus aureus, ATCC29213
# [8] = system: S. aureus SCV NewbouldΔhemB; assay: MIC, microdilution in BHI 48 h; format: cell-based, Staphylococcus aureus
# [9] = system: S. aureus CF35A-L; assay: MIC, microdilution in CAMHB 24 h; format: cell-based, Staphylococcus aureus; details: Staphylococcus aureus, MRSA
# [10] = system: S. aureus Newman; assay: MIC, microdilution in CAMHB 24 h; format: cell-based, Staphylococcus aureus; details: Staphylococcus aureus
# [11] = system: S. aureus CF07-L (normal strain); assay: MIC, microdilution in BHI 48 h (Examples 1, 3); format: cell-based, Staphylococcus aureus
# [12] = system: S. aureus Sa228c; assay: MIC, microdilution in CAMHB 24 h; format: cell-based, Staphylococcus aureus; details: Staphylococcus aureus, MRSA
# [13] = system: S. aureus Newbould (normal strain); assay: MIC, microdilution in BHI 48 h; format: cell-based, Staphylococcus aureus
# [14] = system: S. aureus MRSA COL; assay: MIC, microdilution in CAMHB 24 h; format: cell-based, Staphylococcus aureus; details: Staphylococcus aureus
# [15] = system: S. aureus Mu50; assay: MIC, microdilution in CAMHB 24 h; format: cell-based, Staphylococcus aureus; details: Staphylococcus aureus
# [16] = system: S. aureus CF1A-L; assay: MIC, microdilution in CAMHB 24 h; format: cell-based, Staphylococcus aureus; details: Staphylococcus aureus, CF1AL
# [17] = system: S. aureus CF4B-L; assay: MIC, microdilution in CAMHB 24 h; format: cell-based, Staphylococcus aureus; details: Staphylococcus aureus, CF4BL
# [18] = system: S. aureus CF07-L; assay: MIC, microdilution in CAMHB 24 h; format: cell-based, Staphylococcus aureus; details: Staphylococcus aureus, CF07L
# [19] = system: S. aureus SCV CF1D-S; assay: MIC, microdilution in BHI 48 h; format: cell-based, Staphylococcus aureus
# [20] = system: S. aureus CF7A-L; assay: MIC, microdilution in CAMHB 24 h; format: cell-based, Staphylococcus aureus; details: Staphylococcus aureus, MRSA
# [21] = system: S. aureus MA078038; assay: MIC, microdilution in CAMHB 24 h; format: cell-based, Staphylococcus aureus; details: Staphylococcus aureus, MRSA
# [22] = system: S. aureus ATCC 29213; assay: MIC, microdilution in BHI 48 h (Examples 1, 3); format: cell-based, Staphylococcus aureus
# [23] = system: S. aureus CF1A-L (normal strain); assay: MIC, microdilution in BHI 48 h; format: cell-based, Staphylococcus aureus
# [24] = system: S. aureus CF8E-L; assay: MIC, microdilution in CAMHB 24 h; format: cell-based, Staphylococcus aureus; details: Staphylococcus aureus, CF8EL
# [25] = system: S. aureus CF9A-L; assay: MIC, microdilution in CAMHB 24 h; format: cell-based, Staphylococcus aureus; details: Staphylococcus aureus, MRSA
# [26] = system: S. aureus ATCC BAA-41; assay: MIC, microdilution in CAMHB 24 h; format: cell-based, Staphylococcus aureus; details: Staphylococcus aureus, ATCC BAA-41 / MRSA
# [27] = system: protein, DNA, RNA and cell wall peptidoglycan biosynthesis in ATCC 29213; assay: Macromolecular biosynthesis assay, incorporation of radiolabeled precursors; format: cell-based, Staphylococcus aureus; details: control antibiotics at approximately 4×MIC; FIG. 3A
# [28] = system: S. aureus SCV CF07-S; assay: MIC, microdilution in BHI 48 h (Examples 1, 3); format: cell-based, Staphylococcus aureus
# [29] = system: S. aureus CF6B-L; assay: MIC, microdilution in CAMHB 24 h; format: cell-based, Staphylococcus aureus; details: Staphylococcus aureus, CF6BL
# [30] = system: S. aureus N315; assay: microbe, parasite or virus in culture; format: cell-based, Staphylococcus aureus; details: Staphylococcus aureus, MRSA
# [31] = system: S. aureus Newbould; assay: MIC, microdilution in CAMHB 24 h; format: cell-based, Staphylococcus aureus; details: Staphylococcus aureus
# [32] = system: S. aureus SCVs (NewbouldΔhemB, CF07-S and CF1D-S); assay: MIC, microdilution in BHI 48 h, summary for SCVs; format: cell-based, Staphylococcus aureus; details: all SCVs of Table 1
# [33] = ATCC 29213, data not shown, read-out: MIC
compound,measurement,setting,value
"CN[C@H](CC(C)C)C(=O)N[C@H]1C(=O)N[C@@H](CC(N)=O)C(=O)N[C@H]2C(=O)N[C@H]3C(=O)N[C@H](C(=O)N[C@H](C(=O)O)c4cc(O)cc(O)c4-c4cc3ccc4O)[C@H](O)c3ccc(c(Cl)c3)Oc3cc2cc(c3O[C@@H]2O[C@H](CO)[C@@H](O)[C@H](O)[C@H]2O[C@H]2C[C@](C)(N)[C@H](O)[C@H](C)O2)Oc2ccc(cc2Cl)[C@H]1O [Vancomycin, vancomycin]",MIC,[1],1 µg/mL
same,MIC,[2],0.5 to 1 µg/mL
same,MIC,[3],1 µg/mL
same,MIC,[4],0.5 to 1 µg/mL
same,MIC,[5],1 µg/mL
same,Fold (−TO/+TO),[6]; ATCC 29213,1 fold
same,MIC,[6]; ATCC29213,1 µg/mL
same,MIC,"[6]; ATCC29213, read-out: MIC −TO",1 µg/mL
same,MIC,[7],0.5 to 1 µg/mL
same,MIC,[8]; Staphylococcus aureus,2 µg/mL
same,MIC,[9],1 µg/mL
same,MIC,[10]; NEWMAN,1 µg/mL
same,MIC,[11]; CF07-L + HQNO at 20 μg/ml,2 µg/mL
same,MIC,"[11]; CF07-L, without HQNO",2 µg/mL
same,MIC,[11]; Staphylococcus aureus,2 µg/mL
same,MIC,[12],1 µg/mL
same,MIC,[13]; Staphylococcus aureus,1 µg/mL
same,MIC,[14]; MRSA,2 µg/mL
same,MIC,[15]; MRSA / VISA,4 µg/mL
same,MIC,[16],1 µg/mL
same,MIC,[17],1 µg/mL
same,MIC,[18],1 to 2 µg/mL
same,MIC,"[19]; Staphylococcus aureus, SCVCF1DS",2 µg/mL
same,MIC,[20],1 µg/mL
same,MIC,[21],0.5 to 1 µg/mL
same,MIC,[22]; ATCC 29213 + HQNO at 20 μg/ml,2 µg/mL
same,MIC,"[22]; Staphylococcus aureus, ATCC29213, ATCC 29213, without HQNO",2 µg/mL
same,MIC,"[22]; Staphylococcus aureus, ATCC29213, ATCC 29213 in BHI",2 µg/mL
same,MIC,"[22]; Staphylococcus aureus, ATCC29213, ATCC 29213 in MHBCA",1 to 2 µg/mL
same,MIC,[23]; Staphylococcus aureus,1 to 2 µg/mL
same,MIC,[24],1 to 2 µg/mL
same,MIC,[25],1 µg/mL
same,MIC,[26],1 µg/mL
same,incorporation of radiolabeled precursors into the targeted macromolecules,[27],preferentially inhibited
same,MIC,[28]; CF07-S + HQNO at 20 μg/ml,2 µg/mL
same,MIC,"[28]; CF07-S, without HQNO",2 µg/mL
same,MIC,"[28]; Staphylococcus aureus, SCVCF07S",2 µg/mL
same,MIC,[29],0.5 to 1 µg/mL
same,MIC,[30],0.5 µg/mL
same,MIC,[31],0.5 to 1 µg/mL
"C[C@H]1CC[C@]2(NC1)O[C@H]1C[C@H]3[C@@H]4CC[C@H]5C[C@@H](O[C@@H]6O[C@H](CO)[C@H](O[C@@H]7O[C@H](CO)[C@@H](O)[C@H](O[C@@H]8OC[C@@H](O)[C@H](O)[C@H]8O)[C@H]7O[C@@H]7O[C@H](CO)[C@@H](O)[C@H](O)[C@H]7O)[C@H](O)[C@H]6O)CC[C@]5(C)[C@H]4CC[C@]3(C)[C@H]1[C@@H]2C [Tomatine, tomatine]",MIC,"[8]; NewbouldΔhemB, SCV",>16 µg/mL
same,MIC,[11]; CF07-L + HQNO at 20 μg/ml,>16 µg/mL
same,MIC,"[11]; CF07-L, normal strain",>16 µg/mL
same,MIC,"[11]; CF07-L, without HQNO",>16 µg/mL
same,MIC,"[13]; Newbould, normal strain",>16 µg/mL
same,MIC against all SCVs,[32],no MIC was observed
same,MIC,"[19]; CF1D-S, SCV",>16 µg/mL
same,MIC,[22]; ATCC 29213 + HQNO at 20 μg/ml,>16 µg/mL
same,MIC,"[22]; ATCC 29213, without HQNO",>16 µg/mL
same,MIC,[22]; ATCC 29213 in BHI,>16 µg/mL
same,MIC,[22]; ATCC 29213 in MHBCA,>16 µg/mL
same,MIC,"[23]; CF1A-L, normal strain",>16 µg/mL
same,MIC,[28]; CF07-S + HQNO at 20 μg/ml,>16 µg/mL
same,MIC,"[28]; CF07-S, SCV",>16 µg/mL
same,MIC,"[28]; CF07-S, without HQNO",>16 µg/mL
"CCn1cc(C(=O)O)c(=O)c2cc(F)c(N3CCNCC3)cc21 [Norfloxacin, norfloxacin]",MIC,"[1]; 8325-4, Laboratory strain, read-out: MIC",1 to 2 µg/mL
same,MIC,"[2]; SHY97-3906, Cow (mastitis), read-out: MIC",0.5 to 1 µg/mL
same,MIC,"[3]; CF2A-L, Human (CF lungs), read-out: MIC",0.5 to 1 µg/mL
same,MIC,"[5]; Sa220c, Human (SSTI), read-out: MIC",> 64 µg/mL
same,Fold (−TO/+TO),[6]; ATCC 29213,1 fold
same,MIC,"[6]; ATCC29213, ATCC 29213, Human (SSTI), read-out: MIC",1 to 2 µg/mL
same,MIC,"[6]; ATCC29213, ATCC 29213, absence of tomatidine, read-out: MIC −TO",1 to 2 µg/mL
same,MIC,"[6]; ATCC29213, ATCC 29213, presence of tomatidine at 8 μg/ml, read-out: MIC +TO",1 to 2 µg/mL
same,MIC,[7]; [33],1 µg/mL
same,MIC,"[9]; CF35A-L, Human (CF lungs), read-out: MIC",> 64 µg/mL
same,MIC,"[10]; Newman, Human (Osteo), read-out: MIC",1 µg/mL
same,MIC,[12],> 64 µg/mL
same,MIC,"[14]; MRSA COL, Human (SSTI), read-out: MIC",2 to 4 µg/mL
same,MIC,"[15]; Mu50, Human (SSTI), MRSA, VISA, read-out: MIC",> 64 µg/mL
same,MIC,"[16]; CF1A-L, Human (CF lungs), read-out: MIC",1 µg/mL
same,MIC,"[17]; CF4B-L, Human (CF lungs), read-out: MIC",1 µg/mL
same,MIC,"[18]; CF07-L, Human (CF lungs), read-out: MIC",1 to 2 µg/mL
same,MIC,"[20]; CF7A-L, Human (CF lungs), read-out: MIC",> 64 µg/mL
same,MIC,"[24]; CF8E-L, Human (CF lungs), read-out: MIC",4 µg/mL
same,MIC,"[25]; CF9A-L, Human (CF lungs), read-out: MIC",> 64 µg/mL
same,incorporation of radiolabeled precursors into the targeted macromolecules,[27],preferentially inhibited
same,MIC,"[29]; CF6B-L, Human (CF lungs), read-out: MIC",> 64 µg/mL
same,MIC,"[31]; Newbould, Cow (mastitis), read-out: MIC",0.5 µg/mL
O=C(N[C@H](CO)[C@H](O)c1ccc([N+](=O)[O-])cc1)C(Cl)Cl [chloramphenicol],MIC,[7]; [33],8 to 16 µg/mL
same,incorporation of radiolabeled precursors into the targeted macromolecules,[27],preferentially inhibited
